Measurements from US9267129B2, “Compositions and methods for conferring herbicide resistance” (BEN-GURION UNIVERSITY OF THE NEGEV RESEARCH AND DEVELOPMENT …, priority 2011, dated 2016).

Target: T1, PiAHAS mutant W605S (Lobosphaera incisa, UniProt I3VJH2, W604S)
T1 sequence (I3VJH2 with tags, fused parts or gaps W604S): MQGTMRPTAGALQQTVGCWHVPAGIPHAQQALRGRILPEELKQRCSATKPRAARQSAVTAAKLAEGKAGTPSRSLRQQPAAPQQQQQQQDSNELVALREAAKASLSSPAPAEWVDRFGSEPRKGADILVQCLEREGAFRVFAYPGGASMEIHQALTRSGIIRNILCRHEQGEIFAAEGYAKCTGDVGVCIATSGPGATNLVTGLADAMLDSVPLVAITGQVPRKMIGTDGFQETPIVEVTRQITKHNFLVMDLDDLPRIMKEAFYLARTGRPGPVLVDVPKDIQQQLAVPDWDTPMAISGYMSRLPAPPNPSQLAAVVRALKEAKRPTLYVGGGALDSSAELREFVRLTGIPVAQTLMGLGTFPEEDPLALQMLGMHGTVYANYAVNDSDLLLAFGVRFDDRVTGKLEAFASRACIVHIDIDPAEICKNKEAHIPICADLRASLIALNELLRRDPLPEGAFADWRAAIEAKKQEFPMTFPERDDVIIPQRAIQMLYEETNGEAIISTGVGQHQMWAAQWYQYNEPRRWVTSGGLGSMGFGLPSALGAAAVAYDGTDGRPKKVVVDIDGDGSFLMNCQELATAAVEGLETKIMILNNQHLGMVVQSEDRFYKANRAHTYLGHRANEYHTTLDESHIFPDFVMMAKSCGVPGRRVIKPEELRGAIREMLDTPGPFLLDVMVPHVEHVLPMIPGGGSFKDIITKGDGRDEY
Assay: PiAHAS in vitro enzyme assay, inhibition by SMM (mutant)
Assay type: biochemical, Parietochloris incisa
Conditions: even at high concentrations of 200 μM
Protocol: To overexpress the hexahistidine (6xHis)-tagged PiAHAS genes in E. coli strain JM109, plasmids pQE-WT and pQE-MUT were used. These plasmids were constructed by inserting the BamHI-SalI fragment containing the cloned PiAHAS wt and mutant genes into plasmid pQE30 (Qiagen, Hilden, Germany). These plasmids express PiAHAS fused at its N-terminus to the pQE30 6xHis leader. pQE-WT and pQE-MUT were transformed into E. coli for expression. […] The AHAS catalytic activity was determined as previously described (Bar-Ilan A et al. Binding and activation of thiamin diphosphate in acetohydroxyacid synthase. Biochemistry (N.Y.) 2001, 40, 11946-11954). […] Km for pyruvate and Ki for SMM were determined by varying the concentration of the factor in question. Protein concentration was determined by the dye-binding method of Bradford (Bradford MM. A rapid and sensitive method for the quantitation of microgram quantities of protein utilizing the principle of protein-dye binding. Anal. Biochem. 1976, 72, 248-254), with bovine serum albumin as standard. […]
The Ki was determined to be >30×106, 7 orders of magnitude higher than that of the wild type.

COC(=O)c1ccccc1S(=O)(=O)NC(=O)Nc1nc(C)cc(C)n1 [SMM, sulfometuron methyl]
inhibition of enzyme by SMM: strong resistance
